The IC50 is the concentration that inhibits the measured activity by half.

The source of these data is US20230167068A1, “BENZOPYRAZOLE COMPOUND” (MEDSHINE DISCOVERY INC., priority 2019, published 2023).

For this experiment, the system named is hMMP-1 promoter reporter gene in Hela cells (GR transcription repression). Nature of the experiment: hMMP1 transcription repression activity, luciferase reporter gene screening system (hMMP1 GR transcription repression test). Type of experiment: cell-based. The note with it: Homo sapiens; for Emax: HeLa, maximum effect value, positive control 1000 nM dexamethasone, read-out: TR (hMMP1 transcription inhibition activity) Effect; for IC50: absolute IC50, HeLa hMMP-1/luciferase cells, 10 nM PMA, 18 h, max concentration 1000 nM, read-out: TR (hMMP1 transcription inhibition activity) IC50. The source says:
Human MMP-1 promoter region (containing two AP-1 binding sites and two PEA3 sites, a total of 249bp, GenBank catalog #AF023338) was cloned into the upstream of luciferase reporter gene. The hMMP-1 promoter reporter gene was constructed and transfected into Hela cells so that luciferase production could be easily detected. A stable recombinant hMMP-⅟luciferase cell line was used for the development and validation of this experiment.
• [0377] 1) All the culture media were carefully aspirated, and the cell layer was rinsed gently with an appropriate amount of DPBS, and then aspirated. • [0378] 2) An appropriate amount of 0.05% Typsine EDTA was added and incubated in a CO2 incubator for 3-5 minutes to digest the cells. • [0379] 3) The cells were resuspended with an appropriate amount of cell culture medium. • [0380] 4) The required amount of cells were calculated. The cell concentration was 5x10^3 cells/well. • [0381] 5) The cell suspension was diluted with appropriate cell culture medium. • [0382] 6) The cell suspension was dispensed into a disposable sterile loading slot. • [0383] 7) Inoculated 30µL per well into a 384-well plate. • [0384] 8) The cell plate was placed in a 37° C. 5% CO2 incubator for 18-24 hours.
The final DMSO concentration was 0.1%. PMA needs to be protected from light during use.
hMMP1 GR transcription repression activity test • [0395] 1) Inoculated cells: Fresh cells were inoculated into 384 white experimental plates at 5x10^3 cells/30µL/well, and incubated in a 5% CO2 incubator at 37° C. for 24 hours. • [0396] 2) Compound preparation: The compound plate was prepared before the experiment, and the reference compound (dexamethasone) and the tested compound of 10x concentration were prepared. Finally, the experimental plate of 10× concentration compound was obtained. • [0397] 3) Added compound: 3.3 µL of 10x compound was transferred with Bravo and added to cell plate. Incubated for 18 hours in a 5% CO2 incubator at 37° C. • [0398] 4) 30 µL of Bright-Glo fluorescent detection reagent was transferred to the cell plate. • [0399] 5) Centrifugal incubation for 2 minutes. • [0400] 6) The fluorescence value was measured with the Envision plate reader.
Positive Control: 10 nM PMA + 1000 nM dexamethasone (0.1% DMSO)
Negative control: 10 nM PMA (0.1% DMSO)
Test compound: Maximum concentration of 1000 nM, 4-fold dilution, 10 wells in total, repeated.
Dexamethasone: Maximum concentration of 1000 nM, 4-fold dilution, 10 wells in total, repeated.
The graphing software GraphPad Prism5 was used to create the concentration curves of the test compounds and calculate the IC50 values.
For orientation: A reporter such as luciferase makes a cellular process visible.

Structures are written as SMILES.

`CC(C)[C@H](NC(=O)C(C)(F)F)[C@H](Oc1ccc2c(cnn2-c2ccc3c(c2)CCO3)c1)c1ccccc1` [WX005]: the Emax stood at 70.7% and the IC50 was 0.00675 µM.
The corresponding values for `CC(C)[C@H](NC(=O)C(C)(F)F)[C@H](Oc1ccc2c(cnn2-c2ccc3c(c2)CCCO3)c1)c1ccccc1` [WX006] are 73% and 0.0792 µM.
On to `CC(C)[C@H](NC(=O)C(C)(F)F)[C@H](Oc1ccc2c(cnn2-c2ccc3ncccc3c2)c1)c1ccccc1` [WX007], for which the Emax turned out to be 63.6% and the IC50 was found to be 0.121 µM.
The corresponding values for `CC(C)[C@H](NC(=O)C(C)(F)F)[C@H](Oc1ccc2c(cnn2-c2ccc3c(c2)OCO3)c1)c1ccccc1` [WX008] are 91.4% and 0.0589 µM.
The matching figures for `CC(C)[C@H](NC(=O)C(C)(F)F)[C@H](Oc1ccc2c(cnn2-c2cn3cnnc3cn2)c1)c1ccccc1` [WX025]: 76.1% and 0.0284 µM.
Take `CC(C)[C@H](NC(=O)C(C)(F)F)[C@H](Oc1ccc2c(cnn2-c2cnc3cnccn23)c1)c1ccccc1` [WX027]: the Emax was 79% and the IC50 is 0.0706 µM.
The matching figures for `CC(C)[C@H](NC(=O)C(C)(F)F)[C@H](Oc1ccc2c(cnn2-c2ccc3n[nH]c(=O)n3c2)c1)c1ccccc1` [WX031]: 54.4% and 0.0427 µM.
The corresponding values for `CC(C)[C@H](NC(=O)C(C)(F)F)[C@H](Oc1ccc2c(cnn2-c2ccc3nn(C)c(=O)n3c2)c1)c1ccccc1` [WX032] are 57.4% and 0.0566 µM.
For `CC(C)[C@H](NC(=O)C(C)(F)F)[C@H](Oc1ccc2c(cnn2-c2ccc3noc(=O)n3c2)c1)c1ccccc1` [WX033], the Emax was 71.8% and the IC50 worked out at 0.0116 µM.
